{"source": "paper PMC3057995", "about": "“Potent Anti-Tumor Effect Generated by a Novel Human Papillomavirus (HPV) Antagonist Peptide Reactivating the pRb/E2F Pathway” (PLoS ONE, 2011)", "key": {"CaSki cells [1]": {"tested_on": "CaSki cells", "experiment": "MTT cell viability assay, CaSki", "format": "cell-based", "conditions": "HPV16-positive, medium replaced daily, A540, mean ± SE, at least two independent runs in sextuplicate", "method": "(§1) Cell viability was determined with an MTT assay. Briefly, the cells were seeded into 96-well plates at a density of 4–5×10^3 cells/well. The cells were allowed to recover for 24 h before the medium was replaced with DMEM supplemented with peptides at different concentrations. The solvent of the peptides was set as the control. The peptide-supplemented medium was replaced daily and the respective concentrations were maintained. The cells were subjected to an MTT cell proliferation assay at different time points. The plates were incubated at 37°C for 3 h with the addition of 20 µl/well MTT (5 mg/ml). Untransformed MTT in the solution was removed by aspiration. The formazan product was dissolved in DMSO, and plates were shaken vigorously at room temperature for 10–15 min to ensure complete solubilization. The optical density of the formazan solutions was measured by microplate reader at 540 nm."}, "HPV18 E7": {"tested_on": "HPV18 E7", "experiment": "Competitive ELISA with HPV18 E7 anti-serum", "format": "binding", "conditions": "peptides 0.08 µM to 800 µM vs HPV18 E7 anti-serum; mean ± SE, three independent experiments"}, "HPV16 E7 protein": {"tested_on": "HPV16 E7 protein", "conditions": "peptides 0.08 µM to 800 µM vs HPV16E7 mAb; mean ± SE, three independent experiments", "protocol": "HPV16E7 mAb alone, incubated with the coated E7 protein, gave the benchmark absorption value. Absorbance values and inhibitory ratio were collected and calculated as outlined in Materials and Methods.\nThe specificity and affinity of the positive clones and synthetic peptides were determined by competitive ELISA. 400 ng/well HPV16 E7 protein was coated overnight in microtiter wells at 4°C. The positive clones or peptides at different concentrations mixed with HPV16E7 mAb were incubated with the coated E7 protein in microtiter wells for 3 h. The mixture at the same concentration of the library phage and HPV16E7 mAb was set as negative control. […] HPV16E7 mAb alone at the same concentration, incubated with the coated E7 protein, gave benchmark absorption. The inhibitory ratio was calculated by the following formula: Inhibitory ratio = 100%−(A450 of mixture well/A450 of mAb alone well)×100%."}, "HPV16 E7": {"tested_on": "HPV16 E7", "experiment": "Immunohistochemistry of tumor tissues, HPV16 E7", "format": "in vivo, mouse (Balb/C-nu/nu)", "conditions": "400 µg/mouse group vs control"}, "SiHa tumor xenografts": {"tested_on": "SiHa tumor xenografts", "experiment": "H/E staining and BrdU-incorporation of tumor tissues", "format": "in vivo, mouse (Balb/C-nu/nu)", "conditions": "400 µg/mouse group", "method": "Three or two mice bearing tumor of each group were prelabeled with intra-peritoneal injection of BrdU (100 mg/kg, Sigma-Aldrich, Inc., Aaint Louis, MO, USA) 15 hours before sacrificed. Tumor specimens were then prepared as formalin-fixed, paraffin-embedded sections for hematoxylin-eosin staining, BrdU and pRb immunohistochemical staining as previously described, [57]. In brief, immunostaining was performed on formalin-fixed, paraffin-embedded sections using the anti-pRb monoclonal and anti- BrdU monoclonal antibodies, respectively. Before the application of the primary antibodies, an antigen retrieval technique was performed. […] The antibodies were detected by means of the Strept Avidin-Biotin Complex (SABC) method (Wuhan Boster Biological Technology, Ltd., Wuhan, P.R. China.) according to the manufacturer's instructions. Stained slides were examined under a Nikon ECLIPSE TE2000-U microscope (Nikon Corporation, Tokyo, Japan) and images were collected and analyzed with Pixera Penguin 600CL DiRactor™ (Pixera Corporation, Los Gatos, CA, USA). BrdU or pRb-positive cells were counted in each section. The total cell number was determined by nuclear staining with hematoxylin. At least 1000 total cells for each case were counted."}, "CaSki cells [2]": {"tested_on": "CaSki cells", "experiment": "Western blot, CaSki", "format": "cell-based", "conditions": "80 µM, 48 h", "method": "Western blotting was carried out as described previously, [50]. […] After another 48 h of treatment, the cells were lysed in lysis buffer (Beyotime Institute of Biotechnology, Jiangshu, China) containing PMSF (Sigma Chemical Co., St. Louis, MI, USA) for 30 min at 4°C. The lysate was then centrifuged for 20 min at 13,000 rpm and 4°C. The proteins were then separated through SDS-PAGE and transferred onto the PVDF membrane (Immobion®-P Transfer Membrane, Millipore Corp., Billerica, MA, USA). Membranes were blocked in a Tris-buffered saline with 0.1% Tween-20 (TBS-T) solution with 5% nonfat dry milk and incubated overnight with primary antibodies at 4°C. The immunoreactive signals were detected by HRP-conjugated secondary antibodies (KPL, Gaithersburg, MD, USA) followed by SuperSignal® West Pico Chemiluminescent Substrate (Thermo Scientific, Milford, MA, USA.). Anti-β-actin antibodies were used to control protein loading. For the in vivo studies, tumors were harvested, and the cell lysates were prepared and transferred to a clean Eppendorf tube and centrifuged for 30 min at 14,000 rpm. The supernate was probed by western blotting, as described above."}, "COS7": {"tested_on": "COS7", "experiment": "MTT cell viability assay, Cos7", "format": "cell-based, African green monkey", "conditions": "Cos7, HPV-negative; data not shown", "text": "HPV16-positive SiHa and CaSki cervical carcinoma cells were supplied by China Center for Type Culture Collection (CCTCC). The following cell lines used in this project were from our laboratory: HPV18-positive HeLa cervical carcinoma cells, CNE nasopharyngeal carcinoma cells, HaCat human keratinocyte cells, COS7 (African green monkey SV40-transformed kidney fibroblast cell line), 293T (human kidney epithelial cells), and NIH/3T3 mouse embryonic fibroblast cells. All cells were maintained in a humidified atmosphere of 5% CO2, Dulbecco's modified Eagle's medium (DMEM, pH 7.2), supplemented with 10% fetal calf serum (FCS).\nas §1, with “The formazan product was dissolved in DMSO, and plates were shaken vigorously at room temperature for 10–15 min to ensure complete solubilization.” left out"}, "[3]": {"tested_on": "cyclin A, E1 and D1 promoters containing E2F binding sites", "experiment": "Luciferase reporter assay, SiHa", "format": "cell-based", "conditions": "80 µM, 24 h", "method": "SiHa cells were co-transfected with E2F-responsive luciferase reporter plasmids and siRNA of Rb, p130 and p107, respectively.\nThe cells were seeded in 12-well plate at a density of 3×10^5 cells/well. The following day, cells were transfected with SiRNA and luciferase reporter plasmids or siRNA alone, respectively, using LipofectAMINE 2000 as described in the manufacturer's protocol (Invitrogen, Carlsbad, CA, USA).\n(§2) The reporter assays were performed using Bright-Glo™ Luciferase Assay System (Promega, Madison, WI, USA) according to the manufacturer's instructions. Briefly, cells were plated in 12-well plates at a density of 1.5×10^5 cells/well. The following day, cells were transfected with reporter constructs. […] Thereafter, cell lysates were collected for reporter assays. The luciferase reporter activity of each sample was normalized against the corresponding protein content prior to calculation of the fold induction value relative to the controls. Each sample was determined in triplicate. The results represent means ± SE from three experiment runs."}, "[4]": {"tested_on": "cyclin A, E1 and D1 promoters containing E2F binding sites", "experiment": "Luciferase reporter assay, CaSki", "format": "cell-based", "conditions": "80 µM, 24 h, means ± SE, three experiments", "method": "as §2"}}}
{"sequence": "SACPKGLDWCGG (C&C bridged by disulfide bonds) (disulfide) [Pep-7]", "values": [{"measurement": "cell proliferation (MTT)", "setting": "CaSki cells [1]", "value": "repressed significantly by Pep-7 in a dose- and time-dependent manner"}, {"measurement": "binding to HPV18 E7", "setting": "HPV18 E7", "value": "did not bind to HPV18 E7"}, {"measurement": "binding to HPV16 E7", "setting": "HPV16 E7 protein", "value": "bound to HPV16 E7 with high affinity compared with the control peptide N-pep"}, {"measurement": "HPV16E7 protein level in tumor tissue", "setting": "HPV16 E7", "value": "decreased"}, {"measurement": "H/E staining and BrdU uptake of tumor tissue", "setting": "SiHa tumor xenografts", "value": "repressed tumor growth"}, {"measurement": "HPV16E7 protein level", "setting": "CaSki cells [2]", "value": "reduced"}, {"measurement": "cyclins A, D1 and E1 protein expression", "setting": "CaSki cells [2]", "value": "significantly reduced"}, {"measurement": "pRb protein level", "setting": "CaSki cells [2]", "value": "increased"}, {"measurement": "cell proliferation (MTT)", "setting": "COS7", "value": "negligible effect"}, {"measurement": "activities of cyclin A, E1 and D1 promoters", "setting": "[3]; means ± SE, three experiments", "value": "remarkable down-regulation"}, {"measurement": "influence of p130 or p107 knock-down on Pep-7 suppression of promoters", "setting": "[3]; p130 or p107 siRNA", "value": "did not affect the influence of Pep-7 on these promoters"}, {"measurement": "influence of pRb knock-down on Pep-7 suppression of promoters", "setting": "[3]; pRb siRNA", "value": "abrogated the suppression of cyclin A, E1 and D1 promoter activities by Pep-7"}, {"measurement": "activities of cyclin A, E1 and D1 promoters", "setting": "[4]", "value": "remarkable down-regulation"}]}
